Data reported in patent EP0414755B1, “INTERACTION SYSTEM COMPRISING A SURFACTANT-STABILIZED DISPERSE AQUEOUS PHASE CONTAINING AN ANTIBODY OR ANTIBODY FRAGMENT” (IGEN, INC., priority 1988, dated 1989).

Tests used:
[1] = test system: 48-G7 antibody (monoclonal IgG made against a p-nitrophenylphosphonate hapten); experiment: 48-G7 antibody-catalyzed hydrolysis of p-nitrophenylcarbonate in aqueous tris buffer, inhibition by transition state analog; type: biochemical; settings: 24 µM inhibitor, 90 µg/ml 48-G7, 10 mM tris buffer pH 8.5
Description: A solution of the 48-G7 antibody was purified from ascites fluid by Protein A chromatography. Following dialysis of the IgG fractions which were obtained into 10 mM tris buffer, 4.0 ml of a 3.0 mg/ml solution of this protein was lyophilyzed to dryness. The protein powder was then resuspended in 1.5 ml of 10 mM tris buffer (pH 8.5). When 10 µl of this antibody solution was added to one milliliter of buffer, a protein concentration of 0.090 mg/ml resulted (as determined from 280 nm and 260 nm absorbances). Thus, the stock antibody solution was 9.0 mg/ml.
The rate of antibody catalyzed hydrolysis of p-nitrophenylcarbonate was determined by adding 15 µl of a 50 mM p-nitrophenylcarbonate (p-NPC) solution dissolved in tetrahydrofuran to 3.0 ml of 10 mM tris buffer (pH 8.5). After this solution was mixed to homogeneity, 1.0 ml was transferred into a reference cuvette and 1.0 ml was transferred into a sample cuvette. An assay was initiated by addition of 10 µl of the 48-G7 antibody solution (0.090 mg). The progress of the reaction was monitored with a Hitachi Model 3200 double beam spectrophotometer (to screen out the rate of solvent-induced background hydrolysis) at 400 nm. The extinction coefficient for the product, p-nitrophenol, was 18,300 M^-1 cm^-1 at pH 8.5.

[2] = test system: 48-G7 antibody (monoclonal IgG made against a p-nitrophenylphosphonate hapten); experiment: 48-G7 antibody-catalyzed hydrolysis of p-nitrophenylcarbonate in AOT/iso-octane microemulsion, inhibition by transition state analog; type: biochemical; settings: 24 µM final concentration of inhibitor; 50 mM AOT in iso-octane, 888 µM p-NPC; uninhibited rate 0.00028 Abs/minute
Description: The rate of 48-G7 antibody-catalyzed hydrolysis of p-NPC was determined in a 50 mM solution of sodium bi-(2-ethylhexyl) sulfosuccinate ("AOT") in iso-octane containing 888 µM of p-NPC. First 20 ml of the iso-octane solution containing 0.445 g of AOT (M.W.=445g) and 3.5 mg of p-NPC (M.W.-197g) were prepared. To this solution […] (pH 8.5) and 10 µl of the 48-G7 antibody solution were added. A microemulsion of disperse aqueous phase in the iso-octane was obtained by mixing. The hydrolysis of p-NPC and the production of p-nitrophenol was monitored at 400 nm, although an accurate conversion between 400 nm absorbance and moles of p-nitrophenol formed was not possible because the pH inside the microemulsified aqueous phase particles could not be accurately determined.
Upon addition of the 48-G7 antibody solution, the biphasic system became turbid as the antibody-containing, microemulsified aqueous phase particles formed. Subsequently, absorbance at 400 nm began to increase as p-nitrophenol was formed. The rate of 400 nm absorbance increase was 0.00028 Abs/minute.
When this experiment was repeated with the 10 µl of tris buffer containing 2.4 mM p-nitrophosphonate hapten (24 µM final concentration), the initial 400 nm absorbance was similar to the non-inhibited antibody solution. […] Instead, the 400 nm absorbance continued to decrease. […]

## O=[N+]([O-])c1ccc(P(=O)(O)O)cc1 [p-nitrophenylphosphonate]
[1]; uninhibited rate 0.49 µmolar p-NPC per minute
  rate of hydrolysis of p-NPC in the presence of inhibitor: 0.109 µM/min
[1]; uninhibited rate 0.0089 Abs/min
  rate of hydrolysis of p-NPC in the presence of inhibitor (400 nm absorbance): 0.002 Abs units/minute
[2]
  400 nm absorbance (p-nitrophenylcarbonate hydrolysis) in the presence of inhibitor: did not rise
